# Values quoted from earlier work, collected in patent US20120083772A1, “CORNEAL TREATMENT SYSTEM AND METHOD” (CURVERIGHT LLC, priority 2010, published 2012).
# Tested on: living cells
structure (smiles),measurement,value
OO [hydrogen peroxide],concentration that can stop the proliferation of living cells,1000 nM
